Measured values: the supplement of paper PMC9265050, “Inhibition of RNA Binding in SND1 Increases the Levels of miR-1-3p and Sensitizes Cancer Cells to Navitoclax” (Cancers, 2022)

Test system: SW480
Test: drug sensitivity score (DSS, integrated dose-response area); higher = more sensitive (stronger viability reduction); extreme values may be limits of the assay
Method in brief: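 SW480 cells stably carrying doxycycline-inducible control or SND1-targeting shRNA were induced with 0.1 µg/mL doxycycline for 7 days. They were then plated at 1000 cells per well in 384-well plates holding 525 commercially available small-molecule inhibitors at five concentrations. Viability was read with CellTiter-Glo after 72 h. The drug sensitivity score integrates the area under a fitted non-linear dose–response model.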

[1] = shRNA: SND1 shRNA1 (SND1 silenced)
[2] = shRNA: SND1 shRNA2 (SND1 silenced)
[3] = shRNA: control shRNA (non-targeting)

Compound | drug sensitivity score [1] | drug sensitivity score [2] | drug sensitivity score [3]
CCN(CC)CCNC(=O)c1c(C)[nH]c(/C=C2\C(=O)Nc3ccc(F)cc32)c1C [Sunitinib] | 0.3 DSS | 0.1 DSS | 0.7 DSS
CC(C)(O)CC(=O)NCCn1ccc2ncnc(Nc3ccc(Oc4cccc(C(F)(F)F)c4)c(Cl)c3)c21 [TAK-285] | 0 DSS | 0 DSS | 0 DSS
N#Cc1c(Oc2ccc(F)c(NC(=O)Cc3cccc(C(F)(F)F)c3)c2)ccc2nc(NC(=O)C3CC3)sc12 [TAK-632] | 5.9 DSS | 0.5 DSS | 3.1 DSS
CCc1nc(-c2cccc(C)c2)c(-c2ccnc(NC(=O)c3ccccc3)c2)s1 [TAK-715] | 4.7 DSS | – | 5.1 DSS
Cn1c(=O)c(F)c(Nc2ccc(I)cc2F)c2c(=O)n(C[C@@H](O)CO)cnc21 [TAK-733] | 21.7 DSS | 12.2 DSS | 12 DSS
CCS(=O)(=O)c1cccc(-c2cc(C(=O)NC3CCN(C)CC3)c(C)c3[nH]c4ncc(C)cc4c23)c1 [TAK-901] | 0.6 DSS | 0 DSS | 2.1 DSS
COc1cc(C(=O)NC2CCN(C)CC2)c(F)cc1Nc1ncc2c(n1)N(C1CCCC1)CC(F)(F)C(=O)N2C [TAK-960] | 0.1 DSS | 5.4 DSS | 3.6 DSS
Cc1cccc(-c2[nH]c(CNc3ccccc3F)nc2-c2ccc3ncnn3c2)n1 [TEW-7197] | 0 DSS | 0.6 DSS | 0.6 DSS
Nc1nc(N)c2nc(-c3cccc(O)c3)c(-c3cccc(O)c3)nc2n1 [TG100-115] | 0 DSS | 2.6 DSS | 4.9 DSS
Cc1cc(C(C)Nc2ccccc2)c2nc(N3CCOCC3)cc(=O)n2c1 (stereo not drawn) [TGX-221] | 1.6 DSS | 2.5 DSS | 0.8 DSS
Nc1nc(NC2CC2)cc(-c2cccc(Cl)c2Cl)n1 [TH588] | 6.2 DSS | – | 6.3 DSS
NC(=O)Nc1sc(-c2ccc(F)cc2)cc1C(N)=O [TPCA-1] | 3.8 DSS | – | 2.3 DSS
Clc1ccccc1C(c1ccccc1)(c1ccccc1)n1cccn1 [TRAM-34] | 0 DSS | 0 DSS | 1.3 DSS
CC(=O)Nc1ccc(C(=O)Nc2ccccc2N)cc1 [Tacedinaline] | 0 DSS | 4.5 DSS | 3.8 DSS
C=CC[C@@H]1/C=C(\C)C[C@H](C)C[C@H](OC)[C@H]2O[C@@](O)(C(=O)C(=O)N3CCCC[C@H]3C(=O)O[C@H](/C(C)=C/[C@@H]3CC[C@@H](O)[C@H](OC)C3)[C@H](C)[C@@H](O)CC1=O)[C@H](C)C[C@@H]2OC [Tacrolimus] | 0 DSS | – | 0 DSS
Cn1ncnc1[C@H]1c2n[nH]c(=O)c3cc(F)cc(c23)N[C@@H]1c1ccc(F)cc1 [Talazoparib] | 5.8 DSS | 0 DSS | 2.5 DSS
C[C@@H]1CN(Cc2ccc(F)cc2)[C@@H](C)CN1C(=O)c1cc2c(C(=O)C(=O)N(C)C)cn(C)c2cc1Cl [Talmapimod] | 0 DSS | – | 0 DSS
COc1cc(Nc2ncc(F)c(Nc3ccc4c(n3)NC(=O)C(C)(C)O4)n2)cc(OC)c1OC [Tamatinib] | 0.4 DSS | 0.4 DSS | 0 DSS
CC/C(=C(\c1ccccc1)c1ccc(OCCN(C)C)cc1)c1ccccc1 [Tamoxifen] | 5 DSS | 4.4 DSS | 5.9 DSS
COc1cc2c(N3CCN(C(=O)Nc4ccc(OC(C)C)cc4)CC3)ncnc2cc1OCCCN1CCCCC1 [Tandutinib] | 0.5 DSS | 4.3 DSS | 3 DSS
C=CCNC1=C2C[C@@H](C)C[C@H](OC)[C@H](O)[C@@H](C)/C=C(\C)[C@H](OC(N)=O)[C@@H](OC)/C=C\C=C(/C)C(=O)NC(=CC1=O)C2=O [Tanespimycin] | 10.5 DSS | 11.7 DSS | 16.1 DSS
O[C@H]1CC[C@H](Nc2ncc3nc(Nc4c(F)cc(F)cc4F)n([C@H]4CCOC4)c3n2)CC1 [Tanzisertib] | 2.9 DSS | – | 3.4 DSS
C[C@@H](C(=O)O)c1ccc(-c2ccccc2)c(F)c1 [Tarenflurbil] | 0 DSS | 0 DSS | 0 DSS
Cc1nc(-c2cn3c(n2)-c2ccc(-c4cnn(C(C)(C)C(N)=O)c4)cc2OCC3)n(C(C)C)n1 [Taselisib] | 0 DSS | 0.7 DSS | 0 DSS
COc1cccc2c1c(O)c(C(=O)N(C)c1ccc(C(F)(F)F)cc1)c(=O)n2C [Tasquinimod] | 3.7 DSS | 0 DSS | 2.3 DSS

Compound | drug sensitivity score [1] | drug sensitivity score [2] | drug sensitivity score [3]
CCN(c1cc(-c2ccc(CN3CCOCC3)cc2)cc(C(=O)NCc2c(C)cc(C)[nH]c2=O)c1C)C1CCOCC1 [Tazemetostat] | 3.8 DSS | 0.8 DSS | 2.2 DSS
CNC(=O)c1cc(COc2nnc(Nc3ccc(Cl)cc3)c3ccoc23)ccn1 [Telatinib] | 0 DSS | 0 DSS | 0 DSS
Cn1nnc2c(C(N)=O)ncn2c1=O [Temozolomide] | 0 DSS | 5.2 DSS | 2.4 DSS
CO[C@H]1C[C@@H]2CC[C@@H](C)[C@@](O)(O2)C(=O)C(=O)N2CCCC[C@H]2C(=O)O[C@H]([C@H](C)C[C@@H]2CC[C@@H](OC(=O)C(C)(CO)CO)[C@H](OC)C2)CC(=O)[C@H](C)/C=C(\C)[C@@H](O)[C@@H](OC)C(=O)[C@H](C)C[C@H](C)/C=C/C=C/C=C/1C [Temsirolimus] | 11.9 DSS | – | 9.5 DSS
COc1cc([C@@H]2c3cc4c(cc3[C@@H](O[C@@H]3O[C@@H]5CO[C@@H](c6cccs6)O[C@H]5[C@H](O)[C@H]3O)[C@H]3COC(=O)[C@H]23)OCO4)cc(OC)c1O [Teniposide] | 9.1 DSS | 6 DSS | 7.8 DSS
O=C1CCC(N2C(=O)c3ccccc3C2=O)C(=O)N1 (stereo not drawn) [Thalidomide] | 0.5 DSS | 0.1 DSS | 2 DSS
S=P(N1CC1)(N1CC1)N1CC1 [Thio-TEPA] | 0 DSS | 0 DSS | 0 DSS
Nc1nc2[nH]cnc2c(=S)[nH]1 [Thioguanine] | 9.3 DSS | 5.9 DSS | 8.4 DSS
O=c1sn(-c2cccc3ccccc23)c(=O)n1Cc1ccccc1 [Tideglusib] | 0.1 DSS | 1.2 DSS | 0.1 DSS
Cn1cncc1[C@@](N)(c1ccc(Cl)cc1)c1ccc2c(c1)c(-c1cccc(Cl)c1)cc(=O)n2C [Tipifarnib] | 8.8 DSS | 8.7 DSS | 10.2 DSS
O=C1NC(=O)[C@@H](c2cn3c4c(cccc24)CCC3)[C@@H]1c1c[nH]c2ccccc12 [Tivantinib] | 6.4 DSS | 4 DSS | 5.4 DSS
COc1cc2nccc(Oc3ccc(NC(=O)Nc4cc(C)on4)c(Cl)c3)c2cc1OC [Tivozanib] | 3.8 DSS | 3.6 DSS | 5 DSS
C[C@@H]1CCN(C(=O)CC#N)C[C@@H]1N(C)c1ncnc2[nH]ccc12 [Tofacitinib] | 0 DSS | 0 DSS | 0 DSS
CC[C@@]1(O)C(=O)OCc2c1cc1n(c2=O)Cc2cc3c(CN(C)C)c(O)ccc3nc2-1 [Topotecan] | 11.3 DSS | 8.8 DSS | 9.7 DSS
CN(C)CCOc1ccc(/C(=C(/CCCl)c2ccccc2)c2ccccc2)cc1 [Toremifene] | 2.6 DSS | 1.7 DSS | 3.1 DSS
CC(C)C[C@@H](C(=O)N[C@H](C(=O)OC1CCCC1)c1ccccc1)[C@H](O)C(=O)NO [Tosedostat] | 4.4 DSS | 3.2 DSS | 3.2 DSS
Cc1cc(Nc2cc(N3CCN(C)CC3)nc(Sc3ccc(NC(=O)C4CC4)cc3)n2)n[nH]1 [Tozasertib] | 8.6 DSS | – | 4.8 DSS
CC(=O)Nc1cccc(-n2c(=O)n(C3CC3)c(=O)c3c(Nc4ccc(I)cc4F)n(C)c(=O)c(C)c32)c1 [Trametinib] | 19.3 DSS | 12.7 DSS | 8.1 DSS
CC1=C(/C=C/C(C)=C/C=C/C(C)=C/C(=O)O)C(C)(C)CCC1 [Tretinoin] | 0 DSS | 0 DSS | 0 DSS
NC(=S)N/N=C/c1ncccc1N [Triapine] | 2.8 DSS | – | 2.4 DSS
O=C(CCCCCCC(=O)Nc1ccc([C@H]2O[C@@H](CSc3nc(-c4ccccc4)c(-c4ccccc4)o3)C[C@@H](c3ccc(CO)cc3)O2)cc1)NO [Tubacin] | 4.1 DSS | 2.7 DSS | 6.2 DSS
CN1CCc2c(c3ccccc3n2Cc2ccc(C(=O)NO)cc2)C1 [Tubastatin A] | 4.3 DSS | 5 DSS | 6.4 DSS
CN[C@@H]1C[C@H]2O[C@@](C)([C@@H]1OC)n1c3ccccc3c3c4c(c5c6ccccc6n2c5c31)C(=O)N[C@H]4O [UCN-01] | 24 DSS | 25 DSS | 25.4 DSS
COC(=O)c1ccc2c(c1)[nH]c1ncnc(NCCCN3CCCCC3)c12 [UM729] | 1.8 DSS | 2.8 DSS | 3.3 DSS
